A short description of this test: Displacement of [3H]-quipazine from 5-HT3 receptor in mouse/rat NG108-15 cells. The format is cell-based.

Structures are written as SMILES.

For `O=C1c2cccc3c2[C@H](CCC3)CN1[C@@H]1CN2CCC1CC2` [PALONOSETRON], the pKi came to 10.5.

The values above are taken from ChEMBL document CHEMBL3091286 (Bioorg Med Chem, 2013).
